Measured values: the kinase profiling compilation of Christmann-Franck et al. (2016)

Legend:
Experiment in all cases: Caliper, Mobility shift assay off-chip
EPHA3 (human) = EPHA3 (human) (UniProt P29320)
CDC7 (human) = CDC7 (human) (UniProt O00311)
NTRK1 (human) = NTRK1 (human) (UniProt P04629)
EPHA6 (human) = EPHA6 (human) (UniProt Q9UF33)
RPS6KA5 KD1 KD2 (human) = RPS6KA5 KD1 KD2 (human) (UniProt O75582)
EPHA7 (human) = EPHA7 (human) (UniProt Q15375)
STK38L (human) = STK38L (human) (UniProt Q9Y2H1)
GSK3A (human) = GSK3A (human) (UniProt P49840)
SRC (human) = SRC (human) (UniProt P12931)
MAPKAPK5 (human) = MAPKAPK5 (human) (UniProt Q8IW41)
PRKD1 (human) = PRKD1 (human) (UniProt Q15139)
ALK NPM1 (human) = ALK NPM1 (human) (UniProt P06748+Q9UM73)
MAPK10 (human) = MAPK10 (human) (UniProt P53779)
PRKACA (human) = PRKACA (human) (UniProt P17612)
SGK1 (human) = SGK1 (human) (UniProt O00141)
RPS6KA3 KD1 KD2 (human) = RPS6KA3 KD1 KD2 (human) (UniProt P51812)
EPHA1 (human) = EPHA1 (human) (UniProt P21709)
PHKG2 (human) = PHKG2 (human) (UniProt P15735)
FLT1 (human) = FLT1 (human) (UniProt P17948)
RPS6KA6 KD1 KD2 (human) = RPS6KA6 KD1 KD2 (human) (UniProt Q9UK32)
SPHK1 (human) = SPHK1 (human) (UniProt Q9NYA1)
RPS6KA4 KD1 KD2 (human) = RPS6KA4 KD1 KD2 (human) (UniProt O75676)
PDGFRB (human) = PDGFRB (human) (UniProt P09619)
FGFR2 (human) = FGFR2 (human) (UniProt P21802)
ERBB2 (human) = ERBB2 (human) (UniProt P04626); settings: compound 0.02 µM
FGR (human) = FGR (human) (UniProt P09769)
HIPK1 (human) = HIPK1 (human) (UniProt Q86Z02)
MAPKAPK3 (human) = MAPKAPK3 (human) (UniProt Q16644)
TYK2 JH1 JH2 (human) = TYK2 JH1 JH2 (human) (UniProt P29597)
PRKCI (human) = PRKCI (human) (UniProt P41743)
FES (human) = FES (human) (UniProt P07332)
AKT1 (human) = AKT1 (human) (UniProt P31749)
TNK1 (human) = TNK1 (human) (UniProt Q13470)
MARK4 (human) = MARK4 (human) (UniProt Q96L34)

FGFR2 (human), sequence (P21802 whole entry, looked up): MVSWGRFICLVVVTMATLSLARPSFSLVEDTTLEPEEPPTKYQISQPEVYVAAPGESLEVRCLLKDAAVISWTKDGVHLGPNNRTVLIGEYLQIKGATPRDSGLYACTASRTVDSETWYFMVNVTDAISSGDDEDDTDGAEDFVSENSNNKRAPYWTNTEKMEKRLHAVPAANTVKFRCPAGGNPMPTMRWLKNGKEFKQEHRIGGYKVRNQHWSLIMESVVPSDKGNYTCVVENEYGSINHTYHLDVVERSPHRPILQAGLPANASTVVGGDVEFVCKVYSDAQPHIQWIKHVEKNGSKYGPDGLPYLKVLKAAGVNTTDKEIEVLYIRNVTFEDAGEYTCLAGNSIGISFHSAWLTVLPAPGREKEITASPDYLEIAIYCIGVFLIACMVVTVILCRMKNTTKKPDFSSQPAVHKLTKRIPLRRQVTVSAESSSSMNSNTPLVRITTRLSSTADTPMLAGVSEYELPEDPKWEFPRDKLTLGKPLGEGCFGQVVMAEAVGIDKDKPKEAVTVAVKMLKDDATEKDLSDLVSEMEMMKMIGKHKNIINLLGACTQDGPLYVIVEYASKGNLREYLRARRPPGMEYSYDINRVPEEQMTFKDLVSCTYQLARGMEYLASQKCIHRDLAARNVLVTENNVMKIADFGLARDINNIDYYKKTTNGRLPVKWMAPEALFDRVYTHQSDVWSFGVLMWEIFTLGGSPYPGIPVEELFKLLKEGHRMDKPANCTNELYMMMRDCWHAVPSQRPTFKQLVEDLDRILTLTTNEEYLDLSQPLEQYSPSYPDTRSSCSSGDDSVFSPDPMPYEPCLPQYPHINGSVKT
TNK1 (human), sequence (Q13470 whole entry, looked up): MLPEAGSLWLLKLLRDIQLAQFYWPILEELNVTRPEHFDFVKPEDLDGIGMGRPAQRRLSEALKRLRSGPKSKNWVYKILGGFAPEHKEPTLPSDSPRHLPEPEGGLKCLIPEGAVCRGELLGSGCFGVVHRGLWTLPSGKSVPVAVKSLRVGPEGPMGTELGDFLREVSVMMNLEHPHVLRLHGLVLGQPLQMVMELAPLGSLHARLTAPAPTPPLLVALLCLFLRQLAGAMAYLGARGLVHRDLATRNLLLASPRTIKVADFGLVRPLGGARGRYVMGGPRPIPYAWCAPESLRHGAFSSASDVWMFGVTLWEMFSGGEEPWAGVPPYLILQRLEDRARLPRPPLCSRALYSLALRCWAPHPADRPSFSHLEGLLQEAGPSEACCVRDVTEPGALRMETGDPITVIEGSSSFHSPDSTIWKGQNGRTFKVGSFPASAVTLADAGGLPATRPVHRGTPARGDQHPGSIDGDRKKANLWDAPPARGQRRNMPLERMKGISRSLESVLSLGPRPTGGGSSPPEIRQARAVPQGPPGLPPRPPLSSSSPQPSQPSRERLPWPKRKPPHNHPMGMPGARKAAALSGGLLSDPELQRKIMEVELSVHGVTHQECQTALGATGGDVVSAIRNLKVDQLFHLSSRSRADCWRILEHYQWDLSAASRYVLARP
MAPKAPK5 (human), sequence (Q8IW41 whole entry, looked up): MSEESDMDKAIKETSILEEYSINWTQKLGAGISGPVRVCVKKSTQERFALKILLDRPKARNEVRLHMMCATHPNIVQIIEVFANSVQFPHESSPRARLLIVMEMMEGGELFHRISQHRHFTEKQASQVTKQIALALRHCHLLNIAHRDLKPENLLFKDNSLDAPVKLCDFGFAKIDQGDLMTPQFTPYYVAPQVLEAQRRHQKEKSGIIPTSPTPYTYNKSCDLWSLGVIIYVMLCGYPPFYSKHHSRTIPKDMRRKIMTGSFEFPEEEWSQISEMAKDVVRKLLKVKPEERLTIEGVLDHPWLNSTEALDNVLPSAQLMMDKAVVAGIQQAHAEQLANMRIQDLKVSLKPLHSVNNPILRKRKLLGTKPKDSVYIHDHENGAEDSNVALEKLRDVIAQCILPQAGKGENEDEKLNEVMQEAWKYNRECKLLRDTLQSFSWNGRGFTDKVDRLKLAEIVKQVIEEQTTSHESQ
SPHK1 (human), sequence (Q9NYA1 whole entry, looked up): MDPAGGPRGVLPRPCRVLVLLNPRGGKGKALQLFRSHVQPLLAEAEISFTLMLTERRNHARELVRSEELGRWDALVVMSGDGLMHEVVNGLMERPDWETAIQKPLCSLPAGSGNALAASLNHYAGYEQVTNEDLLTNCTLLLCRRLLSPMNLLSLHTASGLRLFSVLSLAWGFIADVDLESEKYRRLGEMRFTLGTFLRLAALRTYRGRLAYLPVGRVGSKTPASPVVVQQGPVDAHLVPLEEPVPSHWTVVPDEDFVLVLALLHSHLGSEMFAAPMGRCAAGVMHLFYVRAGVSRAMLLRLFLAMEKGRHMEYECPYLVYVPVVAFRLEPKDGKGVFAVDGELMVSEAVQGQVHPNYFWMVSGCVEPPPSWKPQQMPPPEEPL
PRKCI (human), sequence (P41743 whole entry, looked up): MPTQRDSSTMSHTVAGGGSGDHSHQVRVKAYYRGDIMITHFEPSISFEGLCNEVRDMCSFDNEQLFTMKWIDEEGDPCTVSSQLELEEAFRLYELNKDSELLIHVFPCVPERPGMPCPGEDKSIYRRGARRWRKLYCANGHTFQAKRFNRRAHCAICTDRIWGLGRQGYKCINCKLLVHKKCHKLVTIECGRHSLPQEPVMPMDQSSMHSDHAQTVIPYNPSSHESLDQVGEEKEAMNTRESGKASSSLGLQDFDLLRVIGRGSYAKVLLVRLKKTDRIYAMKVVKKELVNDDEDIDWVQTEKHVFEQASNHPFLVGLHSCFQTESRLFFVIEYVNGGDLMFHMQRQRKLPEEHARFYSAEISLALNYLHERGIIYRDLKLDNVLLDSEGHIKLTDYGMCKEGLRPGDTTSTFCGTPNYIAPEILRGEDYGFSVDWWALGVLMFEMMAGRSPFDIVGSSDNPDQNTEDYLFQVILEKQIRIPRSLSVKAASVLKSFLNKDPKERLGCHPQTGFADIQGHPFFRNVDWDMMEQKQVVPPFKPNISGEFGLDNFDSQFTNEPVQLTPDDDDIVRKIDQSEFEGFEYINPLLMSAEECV
MAPK10 (human), sequence (P53779 whole entry, looked up): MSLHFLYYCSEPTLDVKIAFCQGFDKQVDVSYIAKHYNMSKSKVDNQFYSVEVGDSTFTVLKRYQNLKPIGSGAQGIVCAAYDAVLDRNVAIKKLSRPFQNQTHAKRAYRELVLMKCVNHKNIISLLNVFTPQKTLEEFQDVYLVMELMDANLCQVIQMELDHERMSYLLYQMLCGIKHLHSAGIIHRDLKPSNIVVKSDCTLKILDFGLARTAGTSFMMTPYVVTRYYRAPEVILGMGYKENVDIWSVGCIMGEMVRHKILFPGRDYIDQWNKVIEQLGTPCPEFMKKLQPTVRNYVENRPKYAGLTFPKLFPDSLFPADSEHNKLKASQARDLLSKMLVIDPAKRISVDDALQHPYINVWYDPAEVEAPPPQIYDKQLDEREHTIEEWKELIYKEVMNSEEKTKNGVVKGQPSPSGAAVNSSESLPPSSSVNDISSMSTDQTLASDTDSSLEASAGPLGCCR
EPHA7 (human), sequence (Q15375 whole entry, looked up): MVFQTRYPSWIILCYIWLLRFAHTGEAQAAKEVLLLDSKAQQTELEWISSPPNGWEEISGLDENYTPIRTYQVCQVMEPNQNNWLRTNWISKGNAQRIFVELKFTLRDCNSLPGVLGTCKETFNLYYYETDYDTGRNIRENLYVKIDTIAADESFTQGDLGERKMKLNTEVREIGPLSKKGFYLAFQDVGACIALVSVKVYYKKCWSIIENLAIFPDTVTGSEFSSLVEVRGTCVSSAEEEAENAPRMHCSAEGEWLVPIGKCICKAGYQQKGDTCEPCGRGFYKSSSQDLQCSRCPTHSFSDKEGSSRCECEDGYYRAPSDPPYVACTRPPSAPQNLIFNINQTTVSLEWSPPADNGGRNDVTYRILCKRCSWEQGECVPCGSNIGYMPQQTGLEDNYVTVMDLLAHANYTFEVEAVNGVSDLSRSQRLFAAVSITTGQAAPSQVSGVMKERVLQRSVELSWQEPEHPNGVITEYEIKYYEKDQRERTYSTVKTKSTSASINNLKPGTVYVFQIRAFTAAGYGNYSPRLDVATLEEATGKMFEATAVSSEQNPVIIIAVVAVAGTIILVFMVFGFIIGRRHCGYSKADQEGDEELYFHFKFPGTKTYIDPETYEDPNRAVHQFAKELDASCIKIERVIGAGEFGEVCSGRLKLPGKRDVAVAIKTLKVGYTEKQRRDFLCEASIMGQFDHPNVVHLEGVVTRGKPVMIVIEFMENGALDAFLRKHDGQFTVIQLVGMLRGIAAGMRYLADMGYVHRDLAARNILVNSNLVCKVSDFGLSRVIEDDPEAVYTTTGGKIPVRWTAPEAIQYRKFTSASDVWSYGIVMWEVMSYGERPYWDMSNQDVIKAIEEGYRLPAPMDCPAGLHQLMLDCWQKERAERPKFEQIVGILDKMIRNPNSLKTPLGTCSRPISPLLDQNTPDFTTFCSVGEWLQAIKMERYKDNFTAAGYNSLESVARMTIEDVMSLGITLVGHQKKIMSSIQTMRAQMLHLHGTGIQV
AKT1 (human), sequence (P31749 whole entry, looked up): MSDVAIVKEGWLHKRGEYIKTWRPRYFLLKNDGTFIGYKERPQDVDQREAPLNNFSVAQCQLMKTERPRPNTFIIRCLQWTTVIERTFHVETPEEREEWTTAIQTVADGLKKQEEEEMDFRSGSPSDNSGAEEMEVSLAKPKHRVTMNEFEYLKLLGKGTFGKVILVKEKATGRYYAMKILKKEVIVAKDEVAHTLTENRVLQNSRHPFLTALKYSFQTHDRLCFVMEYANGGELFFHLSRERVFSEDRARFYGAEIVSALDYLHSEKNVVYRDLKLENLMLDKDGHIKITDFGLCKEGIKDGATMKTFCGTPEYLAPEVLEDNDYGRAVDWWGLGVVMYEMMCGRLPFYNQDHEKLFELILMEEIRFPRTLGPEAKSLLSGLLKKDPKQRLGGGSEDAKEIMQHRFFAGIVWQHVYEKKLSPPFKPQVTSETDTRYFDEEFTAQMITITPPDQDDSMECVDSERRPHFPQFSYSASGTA

inhibition (EPHA3 (human); compound 0.02 µM): -6.9%
inhibition (EPHA3 (human); compound 0.2 µM): -1.2%
inhibition (CDC7 (human); compound 0.02 µM): -3.4%
inhibition (CDC7 (human); compound 0.2 µM): -0.7%
inhibition (NTRK1 (human); compound 0.02 µM): 3.4%
inhibition (NTRK1 (human); compound 0.2 µM): 3.9%
inhibition (EPHA6 (human); compound 0.02 µM): 37.1%
inhibition (EPHA6 (human); compound 0.2 µM): 95.9%
inhibition (RPS6KA5 KD1 KD2 (human); compound 0.02 µM): -4.9%
inhibition (RPS6KA5 KD1 KD2 (human); compound 0.2 µM): -7.3%
inhibition (EPHA7 (human); compound 0.02 µM): -2.4%
inhibition (EPHA7 (human); compound 0.2 µM): 23.5%
inhibition (STK38L (human); compound 0.02 µM): 8.9%
inhibition (STK38L (human); compound 0.2 µM): -0.2%
inhibition (GSK3A (human); compound 0.02 µM): 3.5%
inhibition (GSK3A (human); compound 0.2 µM): 2.1%
Ki (SRC (human)): 83.5 nM
inhibition (SRC (human); compound 0.2 µM): 58.1%
inhibition (MAPKAPK5 (human); compound 0.02 µM): 2%
inhibition (MAPKAPK5 (human); compound 0.2 µM): 0.1%
inhibition (PRKD1 (human); compound 0.02 µM): -1.3%
inhibition (PRKD1 (human); compound 0.2 µM): -2.2%
inhibition (ALK NPM1 (human); compound 0.02 µM): 3.6%
inhibition (ALK NPM1 (human); compound 0.2 µM): 5.1%
inhibition (MAPK10 (human); compound 0.02 µM): -2.9%
inhibition (MAPK10 (human); compound 0.2 µM): -6.5%
inhibition (PRKACA (human); compound 0.02 µM): -2.9%
inhibition (PRKACA (human); compound 0.2 µM): -4.8%
inhibition (SGK1 (human); compound 0.02 µM): 5.2%
inhibition (SGK1 (human); compound 0.2 µM): 0.4%
inhibition (RPS6KA3 KD1 KD2 (human); compound 0.02 µM): 0.1%
inhibition (RPS6KA3 KD1 KD2 (human); compound 0.2 µM): -1.8%
inhibition (EPHA1 (human); compound 0.02 µM): -0.2%
inhibition (EPHA1 (human); compound 0.2 µM): 6.5%
inhibition (PHKG2 (human); compound 0.02 µM): -2.9%
inhibition (PHKG2 (human); compound 0.2 µM): -3.3%
inhibition (FLT1 (human); compound 0.02 µM): 91.6%
inhibition (FLT1 (human); compound 0.2 µM): 102%
inhibition (RPS6KA6 KD1 KD2 (human); compound 0.02 µM): 15%
inhibition (RPS6KA6 KD1 KD2 (human); compound 0.2 µM): -2.3%
inhibition (SPHK1 (human); compound 0.02 µM): -5.6%
inhibition (SPHK1 (human); compound 0.2 µM): -7.8%
inhibition (RPS6KA4 KD1 KD2 (human); compound 0.02 µM): -4.9%
inhibition (RPS6KA4 KD1 KD2 (human); compound 0.2 µM): 2.6%
inhibition (PDGFRB (human); compound 0.02 µM): 17.9%
inhibition (PDGFRB (human); compound 0.2 µM): 61.8%
inhibition (FGFR2 (human); compound 0.02 µM): 71.8%
inhibition (FGFR2 (human); compound 0.2 µM): 98.3%
inhibition (ERBB2 (human)): 3.9%
inhibition (FGR (human); compound 0.02 µM): 12.6%
inhibition (FGR (human); compound 0.2 µM): 27.6%
inhibition (HIPK1 (human); compound 0.02 µM): -5.7%
inhibition (HIPK1 (human); compound 0.2 µM): -1%
inhibition (MAPKAPK3 (human); compound 0.02 µM): 1.1%
inhibition (MAPKAPK3 (human); compound 0.2 µM): -0.2%
inhibition (TYK2 JH1 JH2 (human); compound 0.02 µM): 4.8%
inhibition (TYK2 JH1 JH2 (human); compound 0.2 µM): 2.2%
inhibition (PRKCI (human); compound 0.02 µM): 4.3%
inhibition (PRKCI (human); compound 0.2 µM): 6%
inhibition (FES (human); compound 0.02 µM): 6.9%
inhibition (FES (human); compound 0.2 µM): 7.8%
inhibition (AKT1 (human); compound 0.02 µM): -0.8%
inhibition (AKT1 (human); compound 0.2 µM): -3.1%
inhibition (TNK1 (human); compound 0.02 µM): -2.8%
inhibition (TNK1 (human); compound 0.2 µM): -1.2%
inhibition (MARK4 (human); compound 0.02 µM): -7.1%
inhibition (MARK4 (human); compound 0.2 µM): -7.3%
SMILES: COc1cc2c(Oc3ccc4[nH]c(C)cc4c3F)ncnc2cc1OCCCN1CCCC1
